Values of other authors in US11717525B2, “Transdermal and/or topical delivery system comprising clobazam” (Alpha to Omega Pharmaceutical Consultants, Inc., priority 2015, dated 2023).

Key:
[1] = 25° C., practically insoluble
[2] = lipophilic in nature
[3] = oral administration

SMILES: CN1C(=O)CC(=O)N(c2ccccc2)c2cc(Cl)ccc21 [Clobazam]
- solubility in water [1]: 70 microgram/ml (μg/ml)
- Log P [2]: around 2.1
- absorbed when taken orally [3]: 87%
